Results reported in patent US20110178064A1, “SPIRO CONDENSED […] DERIVATIVES FOR USE AS ANTIBACTERIAL” (A[…]&D, priority 2007, published 2011).

Molecular target: Escherichia coli DNA gyrase A/B tetramer (Escherichia coli, UniProt P0AES4+P0AES6)
Experiment: DNA gyrase supercoiling activity fluorescence polarisation assay
Format: biochemical
Description: The supercoiling reactions may be quenched by the addition of 10 microliters/well of 40 nM oligodeoxynucleotide probe in 3× triplex-forming buffer consisting of 150 mM NaCl, and 150 mM sodium acetate at pH 3.5. The oligodeoxynucleotide probe may be 5′-BODIPY-FL-labeled […]. After 60 minutes, the fluorescence anisotropy of the BODIPY-FL may be measured in a Tecan Ultra plate reader, using 485 nm excitation and 535 nm emission filters equipped with polarizers. The IC50 may be determined by nonliner regression using two control reactions. The first contains no test compound but 0.8% DMSO (100% activity) while the second control reaction contains 5 uM Ciprofloxacin and 0.8% DMSO (0% activity).

Escherichia coli DNA gyrase A/B tetramer, sequence (P0AES4 whole entry, one chain of several): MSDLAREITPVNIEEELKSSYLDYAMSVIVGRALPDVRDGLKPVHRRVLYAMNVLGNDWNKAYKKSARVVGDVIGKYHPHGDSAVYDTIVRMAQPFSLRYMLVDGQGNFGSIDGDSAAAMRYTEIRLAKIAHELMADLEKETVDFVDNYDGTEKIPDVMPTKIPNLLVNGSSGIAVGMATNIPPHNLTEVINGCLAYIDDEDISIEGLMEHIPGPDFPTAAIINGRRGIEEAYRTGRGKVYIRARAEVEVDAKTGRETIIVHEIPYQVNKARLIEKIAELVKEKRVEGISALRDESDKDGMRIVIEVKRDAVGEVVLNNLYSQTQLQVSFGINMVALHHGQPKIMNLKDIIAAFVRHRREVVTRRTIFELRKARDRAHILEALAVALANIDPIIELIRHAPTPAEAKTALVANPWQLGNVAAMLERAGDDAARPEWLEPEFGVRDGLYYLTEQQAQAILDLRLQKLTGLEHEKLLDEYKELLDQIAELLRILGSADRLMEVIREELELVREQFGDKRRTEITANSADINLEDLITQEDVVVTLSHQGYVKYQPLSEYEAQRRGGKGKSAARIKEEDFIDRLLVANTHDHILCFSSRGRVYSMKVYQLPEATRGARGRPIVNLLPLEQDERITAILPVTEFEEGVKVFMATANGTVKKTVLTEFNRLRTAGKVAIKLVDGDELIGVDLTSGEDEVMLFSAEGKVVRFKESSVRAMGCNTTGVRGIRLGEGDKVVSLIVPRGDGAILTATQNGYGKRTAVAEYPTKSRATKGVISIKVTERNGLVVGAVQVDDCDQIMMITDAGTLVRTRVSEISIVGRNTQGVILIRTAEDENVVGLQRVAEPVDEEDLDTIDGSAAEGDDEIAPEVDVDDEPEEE

Row | SMILES | IC50 [µM]
1 | Cc1ccc(-c2cnc3c(c2)CC2(C(=O)NC(=O)NC2=O)[C@H]2[C@H](C)O[C@H](C)CN32)s1 (relative stereo) [Example 29, (6aS,7S,9R)-rel-7,9-Dimethyl-3-(5-methylthiophen-2-yl)-6a,7,9,10-tetrahydro-2′H,5H-spiro[1,4oxazino[4,3-a][1,8]naphthyridine-6,5′-pyrimidine]-2′,4′,6′(1′H,3′H)-trione] | 9
2 | Cc1ccsc1-c1cnc2c(c1)CC1(C(=O)NC(=O)NC1=O)[C@H]1[C@H](C)O[C@H](C)CN21 (relative stereo) [Example 30, (6aS,7S,9R)-rel-7,9-Dimethyl-3-(3-methylthiophen-2-yl)-6a,7,9,10-tetrahydro-2′H,5H-spiro[1,4-oxazino[4,3-a][1,8]naphthyridine-6,5′-pyrimidine]-2′,4′,6′(1′H,3′H)-trione] | 12
3 | C[C@@H]1CN2c3ncc(-c4ccc(-c5nnn[nH]5)s4)cc3CC3(C(=O)NC(=O)NC3=O)[C@H]2[C@H](C)O1 (relative stereo) [Example 31, (6aS,7S,9R)-rel-7,9-Dimethyl-3-[5-(1H-tetrazol-5-yl)thiophen-2-yl]-6a,7,9,10-tetrahydro-2′H,5H-spiro[1,4-oxazino[4,3-a][1,8]naphthyridine-6,5′-pyrimidine]-2′,4′,6′(1′H,3′H)-trione] | 6
4 | C[C@@H]1CN2c3ncc(-c4cn(C)cn4)cc3CC3(C(=O)NC(=O)NC3=O)[C@H]2[C@H](C)O1 (relative stereo) [Example 33, (6aS,7S,9R)-rel-7,9-Dimethyl-3-(1-methyl-1H-imidazol-4-yl)-6a,7,9,10-tetrahydro-2′H,5H-spiro[1,4-oxazino[4,3-a][1,8]naphthyridine-6,5′-pyrimidine]-2′,4′,6′(1′H,3′H)-trione] | 48
5 | C[C@@H]1CN2c3ncc(-c4ncc[nH]4)cc3CC3(C(=O)NC(=O)NC3=O)[C@H]2[C@H](C)O1 (relative stereo) [Example 35, (6aS,7S,9R)-rel-3-(1H-Imidazol-2-yl)-7,9-dimethyl-6a,7,9,10-tetrahydro-2′H,5H-spiro[1,4-oxazino[4,3-a][1,8]naphthyridine-6,5′-pyrimidine]-2′,4′,6′(1′H,3′H)-trione] | > 40
6 | C[C@@H]1CN2c3ncc(-c4ccc(-c5ccn[nH]5)s4)cc3CC3(C(=O)NC(=O)NC3=O)[C@H]2[C@H](C)O1 (relative stereo) [Example 36, (6aS,7S,9R)-rel-7,9-Dimethyl-3-[5-(1H-pyrazol-5-yl)thiophen-2-yl]-6a,7,9,10-tetrahydro-2′H,5H-spiro[1,4-oxazino[4,3-a][1,8]naphthyridine-6,5′-pyrimidine]-2′,4′,6′(1′H,3′H)-trione] | 2
7 | C[C@@H]1CN2c3ncc(-c4c[nH]cn4)cc3CC3(C(=O)NC(=O)NC3=O)[C@H]2[C@H](C)O1 (relative stereo) [Example 37, (6aS,7S,9R)-rel-3-(1H-Imidazol-4-yl)-7,9-dimethyl-6a,7,9,10-tetrahydro-2′H,5H-spiro[1,4-oxazino[4,3-a][1,8]naphthyridine-6,5′-pyrimidine]-2′,4′,6′(1′H,3′H)-trione] | 12
8 | C[C@@H]1CN2c3ncc(-c4ccccn4)cc3CC3(C(=O)NC(=O)NC3=O)[C@H]2[C@H](C)O1 (relative stereo) [Example 38, (6aS,7S,9R)-rel-7,9-Dimethyl-3-(pyridin-2-yl)-6a,7,9,10-tetrahydro-2′H,5H-spiro[1,4-oxazino[4,3-a][1,8]naphthyridine-6,5′-pyrimidine]-2′,4′,6′(1′H,3′H)-trione] | 12
9 | C[C@@H]1CN2c3ncc(-c4nc5ccccc5[nH]4)cc3CC3(C(=O)NC(=O)NC3=O)[C@H]2[C@H](C)O1 (relative stereo) [Example 40, (6aS,7S,9R)-rel-3-(1H-Benzimidazol-2-yl)-7,9-dimethyl-6a,7,9,10-tetrahydro-2′H,5H-spiro[1,4-oxazino[4,3-a][1,8]naphthyridine-6,5′-pyrimidine]-2′,4′,6′(1′H,3′H)-trione] | 6
10 | C[C@@H]1CN2c3ncc(-c4ccc(Cl)cn4)cc3CC3(C(=O)NC(=O)NC3=O)[C@H]2[C@H](C)O1 (relative stereo) [Example 42, (6aS,7S,9R)-rel-3-(5-chloropyridin-2-yl)-7,9-dimethyl-6a,7,9,10-tetrahydro-2′H,5H-spiro[1,4-oxazino[4,3-a][1,8]naphthyridine-6,5′-pyrimidine]-2′,4′,6′(1′H,3′H)-trione] | 4
11 | COc1ccncc1-c1cnc2c(c1)CC1(C(=O)NC(=O)NC1=O)[C@H]1[C@H](C)O[C@H](C)CN21 (relative stereo) [Example 43, (6aS,7S,9R)-rel-3-(4-Methoxypyridin-3-yl)-7,9-dimethyl-6a,7,9,10-tetrahydro-2′H,5H-spiro[1,4-oxazino[4,3-a][1,8]naphthyridine-6,5′-pyrimidine]-2′,4′,6′(1′H,3′H)-trione] | 12
12 | C[C@@H]1CN2c3ncc(-c4cncnc4)cc3CC3(C(=O)NC(=O)NC3=O)[C@H]2[C@H](C)O1 (relative stereo) [Example 45, (6aS,7S,9R)-rel-7,9-Dimethyl-3-(pyrimidin-5-yl)-6a,7,9,10-tetrahydro-2′H,5H-spiro[1,4-oxazino[4,3-a][1,8]naphthyridine-6,5′-pyrimidine]-2′,4′,6′(1′H,3′H)-trione] | 30
13 | C[C@@H]1CN2c3ncc(-c4cccc5cccnc45)cc3CC3(C(=O)NC(=O)NC3=O)[C@H]2[C@H](C)O1 (relative stereo) [Example 47, (6aS,7S,9R)-rel-7,9-Dimethyl-3-(quinolin-8-yl)-6a,7,9,10-tetrahydro-2′H,5H-spiro[1,4-oxazino[4,3-a][1,8]naphthyridine-6,5′-pyrimidine]-2′,4′,6′(1′H,3′H)-trione] | > 83
14 | C[C@@H]1CN2c3ncc(-c4ccoc4)cc3CC3(C(=O)NC(=O)NC3=O)[C@H]2[C@H](C)O1 (relative stereo) [Example 48, (6aS,7S,9R)-rel-3-(Furan-3-yl)-7,9-dimethyl-6a,7,9,10-tetrahydro-2′H,5H-spiro[1,4-oxazino[4,3-a][1,8]naphthyridine-6,5′-pyrimidine]-2′,4′,6′(1′H,3′H)-trione] | 17
15 | Cc1noc(C)c1-c1cnc2c(c1)CC1(C(=O)NC(=O)NC1=O)[C@H]1[C@H](C)O[C@H](C)CN21 (relative stereo) [Example 49, (6aS,7S,9R)-rel-3-(3,5-Dimethylisoxazol-4-yl)-7,9-dimethyl-6a,7,9,10-tetrahydro-2′H,5H-spiro[1,4-oxazino[4,3-a][1,8]naphthyridine-6,5′-pyrimidine]-2′,4′,6′(1′H,3′H)-trione] | 30
16 | C[C@@H]1CN2c3ncc(-c4ccncc4)cc3CC3(C(=O)NC(=O)NC3=O)[C@H]2[C@H](C)O1 (relative stereo) [Example 50, (6aS,7S,9R)-rel-7,9-Dimethyl-3-(pyridin-4-yl)-6a,7,9,10-tetrahydro-2′H,5H-spiro[1,4-oxazino[4,3-a][1,8]naphthyridine-6,5′-pyrimidine]-2′,4′,6′(1′H,3′H)-trione] | 8
17 | C[C@@H]1CN2c3ncc(-c4cnccn4)cc3CC3(C(=O)NC(=O)NC3=O)[C@H]2[C@H](C)O1 (relative stereo) [Example 52, (6aS,7S,9R)-rel-7,9-Dimethyl-3-(pyrazin-2-yl)-6a,7,9,10-tetrahydro-2′H,5H-spiro[1,4-oxazino[4,3-a][1,8]naphthyridine-6,5′-pyrimidine]-2′,4′,6′(1′H,3′H)-trione] | 5
18 | C[C@@H]1CN2c3cnc(-c4ccccn4)cc3CC3(C(=O)NC(=O)NC3=O)[C@H]2[C@H](C)O1 (relative stereo) [Example 55, (6aS,7S,9R)-rel-7,9-Dimethyl-3-(pyridin-2-yl)-6a,7,9,10-tetrahydro-2′H,5H-spiro[1,4-oxazino[4,3-a][1,7]naphthyridine-6,5′-pyrimidine]-2′,4′,6′(1′H,3′H)-trione] | 21
19 | C[C@@H]1CN2c3cnc(-c4ccnn4C)cc3CC3(C(=O)NC(=O)NC3=O)[C@H]2[C@H](C)O1 (relative stereo) [Example 57, (6aS,7S,9R)-rel-7,9-dimethyl-3-(1-methyl-1H-pyrazol-5-yl)-6a,7,9,10-tetrahydro-2′H,5H-spiro[1,4-oxazino[4,3-a][1,7]naphthyridine-6,5′-pyrimidine]-2′,4′,6′(1′H,3′H)-trione] | 9
20 | C[C@@H]1CN2c3cnc(-c4cn[nH]c4)cc3CC3(C(=O)NC(=O)NC3=O)[C@H]2[C@H](C)O1 (relative stereo) [Example 59, (6aS,7S,9R)-rel-7,9-Dimethyl-3-(1H-pyrazol-4-yl)-6a,7,9,10-tetrahydro-2′H,5H-spiro[1,4-oxazino[4,3-a][1,7]naphthyridine-6,5′-pyrimidine]-2′,4′,6′(1′H,3′H)-trione] | 50
21 | C[C@@H]1CN2c3cnc(-c4cncnc4)cc3CC3(C(=O)NC(=O)NC3=O)[C@H]2[C@H](C)O1 (relative stereo) [Example 60, (6aS,7S,9R)-rel-7,9-Dimethyl-3-(pyrimidin-5-yl)-6a,7,9,10-tetrahydro-2′H,5H-spiro[1,4-oxazino[4,3-a][1,7]naphthyridine-6,5′-pyrimidine]-2′,4′,6′(1′H,3′H)-trione] | 6
22 | C[C@@H]1CN2c3cnc(-c4cccc5cccnc45)cc3CC3(C(=O)NC(=O)NC3=O)[C@H]2[C@H](C)O1 (relative stereo) [Example 62, (6aS,7S,9R)-rel-7,9-Dimethyl-3-(quinolin-8-yl)-6a,7,9,10-tetrahydro-2′H,5H-spiro[1,4-oxazino[4,3-a][1,7]naphthyridine-6,5′-pyrimidine]-2′,4′,6′(1′H,3′H)-trione] | 8
23 | C[C@@H]1CN2c3cnc(-c4ccoc4)cc3CC3(C(=O)NC(=O)NC3=O)[C@H]2[C@H](C)O1 (relative stereo) [Example 63, (6aS,7S,9R)-rel-3-(furan-3-yl)-7,9-dimethyl-6a,7,9,10-tetrahydro-2′H,5H-spiro[1,4-oxazino[4,3-a][1,7]naphthyridine-6,5′-pyrimidine]-2′,4′,6′(1′H,3′H)-trione] | 35
